{"source": "paper PMC6934184", "about": "“Selective DNA-PKcs inhibition extends the therapeutic index of localized radiotherapy and chemotherapy” (The Journal of Clinical Investigation, 2019)", "molecular_target": "T1, MAP3K11 (MLK3) (Homo sapiens, UniProt Q16584)", "T1 construct": "purchased Thermo Fisher Scientific (Life Technologies) SelectScreen", "T1 sequence (Q16584 whole entry)": "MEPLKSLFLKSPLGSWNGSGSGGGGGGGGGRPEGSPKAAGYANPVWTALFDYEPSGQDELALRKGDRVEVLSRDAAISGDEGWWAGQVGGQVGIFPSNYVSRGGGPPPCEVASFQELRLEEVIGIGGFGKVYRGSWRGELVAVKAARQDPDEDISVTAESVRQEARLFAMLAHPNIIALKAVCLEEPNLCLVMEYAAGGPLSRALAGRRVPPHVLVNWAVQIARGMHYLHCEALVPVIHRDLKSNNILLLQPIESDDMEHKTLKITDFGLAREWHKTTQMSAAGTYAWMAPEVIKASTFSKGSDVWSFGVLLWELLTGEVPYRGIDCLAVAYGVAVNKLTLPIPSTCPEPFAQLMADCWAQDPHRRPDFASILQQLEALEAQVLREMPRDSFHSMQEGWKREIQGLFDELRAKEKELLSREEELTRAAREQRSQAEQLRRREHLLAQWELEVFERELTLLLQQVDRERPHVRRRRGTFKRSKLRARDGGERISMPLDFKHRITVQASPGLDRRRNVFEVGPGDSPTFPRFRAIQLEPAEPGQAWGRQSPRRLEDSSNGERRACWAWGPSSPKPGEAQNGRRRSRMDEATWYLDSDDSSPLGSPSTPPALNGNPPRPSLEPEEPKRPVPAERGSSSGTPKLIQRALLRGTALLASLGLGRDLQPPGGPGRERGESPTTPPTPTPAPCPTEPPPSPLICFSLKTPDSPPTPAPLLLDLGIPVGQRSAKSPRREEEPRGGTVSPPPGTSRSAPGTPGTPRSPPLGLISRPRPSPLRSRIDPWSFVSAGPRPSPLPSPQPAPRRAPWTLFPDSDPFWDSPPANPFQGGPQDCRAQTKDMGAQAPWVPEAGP", "test": "SelectScreen LanthaScreen", "format": "binding", "conditions": "1 µM", "outline": "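SelectScreen broad panel; activity (Z'LYTE, Adapta) plus binding formats. ATP: Km app for CSF1R Z'LYTE; 10 for CAMK1 Adapta. Readout = % per kinase.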", "data": [{"compound": "CN(C(=O)CN1CCOCC1)c1ccc2sc3c(-c4cccc5c(=O)cc(N6CC7CCC(C6)O7)oc45)cccc3c2c1", "note": "[NU5455]", "values": [{"measurement": "% displacement", "value": 4.0, "unit": "%"}]}]}
